Source: patent US6869964B2, “Heterocyclicsulfonamide hepatitis C virus inhibitors” (Bristol-Myers Squibb Company, priority 2002, dated 2005)

Legend:
[1] = biological target: T1, HCV NS3/4A protease complex (BMS strain) (Hepatitis C virus genotype 1a, UniProt P27958, C1454S); test: Recombinant HCV NS3/4A protease complex FRET peptide assay, BMS strain; type: biochemical, HCV genotype 1a; conditions: NS3/4A BMS Strain, activity range; read-out: IC50 a, b, c (Activity Table)
T1 construct: HCV NS3/4A protease complex (amino acids 1027 to 1711); inferred from pET21b vector and Ni-NTA purification; made in house; host or cells: Escherichia coli BL21 (DE3), pET21b
T1 sequence (P27958 1027-1657 C1454S): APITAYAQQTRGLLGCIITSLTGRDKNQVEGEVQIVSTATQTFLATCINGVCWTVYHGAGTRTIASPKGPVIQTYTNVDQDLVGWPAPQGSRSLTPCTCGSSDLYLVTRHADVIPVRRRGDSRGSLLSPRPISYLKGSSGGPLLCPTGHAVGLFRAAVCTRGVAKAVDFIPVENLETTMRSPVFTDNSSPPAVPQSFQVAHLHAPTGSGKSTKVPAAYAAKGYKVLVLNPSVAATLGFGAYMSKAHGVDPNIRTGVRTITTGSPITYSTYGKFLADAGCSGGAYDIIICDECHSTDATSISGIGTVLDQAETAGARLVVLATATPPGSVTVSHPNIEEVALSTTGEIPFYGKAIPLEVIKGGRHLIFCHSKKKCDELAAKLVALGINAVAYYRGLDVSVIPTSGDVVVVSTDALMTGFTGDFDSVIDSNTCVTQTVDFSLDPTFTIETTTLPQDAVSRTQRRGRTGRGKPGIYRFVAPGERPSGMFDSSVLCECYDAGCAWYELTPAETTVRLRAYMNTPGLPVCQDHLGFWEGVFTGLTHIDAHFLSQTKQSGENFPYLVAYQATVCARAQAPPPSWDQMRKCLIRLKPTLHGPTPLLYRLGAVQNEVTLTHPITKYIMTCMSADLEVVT
T1 sequence (P27958 1658-1711 partner, looked up, stated change not applied): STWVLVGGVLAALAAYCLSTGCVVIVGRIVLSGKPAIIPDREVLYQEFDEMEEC
Description: Recombinant HCV NS3/4A Protease Complex FRET Peptide Assay
The purpose of this in vitro assay was to measure the inhibition of HCV NS3 protease complexes, derived from the BMS, H77C or J4l6S strains, as described below, by compounds of the present invention. This assay provides an indication of how effective compounds of the present invention would be in inhibiting HCV proteolytic activity.
Serum from an HCV-infected patient was obtained from Dr. T. Wright, San Francisco Hospital. An engineered full-length cDNA template of the HCV genome (BMS strain) was constructed from DNA fragments obtained by reverse transcription-PCR (RT-PCR) of serum RNA and using primers selected on the basis of homology between other genotype la strains. From the determination of the entire genome sequence, a genotype la was assigned to the HCV isolate according to the classification of Simmonds et al. (See P Simmonds, K A Rose, S Graham, S W Chan, F McOmish, B C Dow, E A Follett, P L Yap and H Marsden, J. Clin. Microbiol., 31(6), 1493-1503 (1993)). […] The infectious clones, H77C (1a genotype) and J4 L6S (1b genotype) were obtained from R. Purcell (NIH) and the sequences are published in Genbank (AAB67036, see Yanagi, M., Purcell, R. H., Emerson, S. U. and Bukh, J. Proc. Natl. Acad. Sci. U.S.A. 94(16),8738-8743 (1997); AF054247, see Yanagi, M., St Claire, M., Shapiro, M., Emerson, S. U., Purcell, R. H. and Bukh, J, Virology 244 (1), 161-172. (1998)).
The BMS, H77C and J4 L6S strains were used for production of recombinant NS3/4A protease complexes. DNA encoding the recombinant HCV NS3/4A protease complex (amino acids 1027 to 1711) for these strains were manipulated as described by P. Gallinari et al. (see Gallinari P, Paolini C, Brennan D, Nardi C, Steinkuhler C, De Francesco R. Biochemistry. 38(17):5620-32, (1999)). Briefly, a three-lysine solubilizing tail was added at the 3′-end of the NS4A coding region. The cysteine in the P1 position of the NS4A-NS4B cleavage site (amino acid 1711) was changed to a glycine to avoid the proteolytic cleavage of the lysine tag. Furthermore, a cysteine to serine mutation was introduced by PCR at amino acid position 1454 to prevent the autolytic cleavage in the NS3 helicase domain. The variant DNA fragment was cloned in the pET21b bacterial expression vector (Novagen) and the NS3/4A complex was expressed in Escherichia coli strain BL21 (DE3) (Invitrogen) following the protocol described by P. Gallinari et al. (see Gallinari P, Brennan D, Nardi C, Brunetti M, Tomei L, Steinkuhler C, De Francesco R., J Virol. 72(8):6758-69 (1998)) with modifications. Briefly, NS3/4A expression was induced with 0.5 mM Isopropyl β-D-1-thiogalactopyranoside (IPTG) for 22 hr at 20° C. A typical fermentation (10 L) yielded approximately 80 g of wet cell paste. The cells were resuspended in lysis buffer (10 mL/g) consisting of 25 mM N-(2-Hydroxyethyl)Piperazine-N′-(2-Ethane Sulfonic acid) (HEPES), pH7.5, 20% glycerol, 500 mM Sodium Chloride (NaCl), 0.5% Triton-X100, 1 ug/ml lysozyme, 5 mM Magnesium Chloride (MgCl2), 1 ug/ml DnaseI, 5 mM β-Mercaptoethanol (βME), Protease inhibitor—Ethylenediamine Tetraacetic acid (EDTA) free (Roche), homogenized and incubated for 20 mins at 4° C. The homogenate was sonicated and clarified by ultra-centrifugation at 235000 g for lhr at 4° C. Imidazole was added to the supernatant to a final concentration of 15 mM and the pH adjusted to 8.0. The crude protein extract was loaded on a Nickel—Nitrilotriacetic acid (Ni—NTA) column pre-equilibrated with buffer B (25 mM HEPES, pH8.0, 20% glycerol, 500 mM NaCl, 0.5% Triton-X100, 15 mM imidazole, 5 mM βME). The sample was loaded at a flow rate of 1 mL/min. The column was washed with 15 column volumes of buffer C (same as buffer B except with 0.2% Triton-X100). The protein was eluted with 5 column volumes of buffer D (same as buffer C except with 200 mM Imidazole). […]

[2] = tested on: HCV replicon in Huh7 cells; test: HCV replicon cell-based assay (FRET); set-up: species or system HCV strain 1B; conditions: Hepatitis C virus, Huh-7; replicon, activity range; read-out: EC50 a, b, c (Activity Table)
Description: HCV Replicon Cell-based Assay
An HCV replicon whole cell system was established as described by Lohmann V, Korner F, Koch J, Herian U, Theilmann L, Bartenschlager R., Science 285(5424): 110-3 (1999). This system enabled us to evaluate the effects of our HCV Protease compounds on HICV RNA replication. Briefly, using the HCV strain 1B sequence described in the Lohmann paper (Assession number: AJ238799), an HCV cDNA was generated encoding the 5′ internal ribosome entry site (IRES), the neomycin resistance gene, the EMCV (encephalomyocarditis virus)-IRES and the HCV nonstructural proteins, NS3-NS5B, and 3′ non-translated region (NTR). In vitro transcripts of the cDNA were transfected into the human hepatoma cell line, Huh7. […] Resulting cell lines were characterized for positive and negative strand RNA production and protein production over time.
Huh7 cells, constitutively expressing the HCV replicon, were grown in Dulbecco's Modified Eagle Media (DMEM) containing 10% Fetal calf serum (FCS) and 1 mg/ml G418 (Gibco-BRL). Cells were seeded the night before (1.5×10^4 cells/well) in 96-well tissue-culture sterile plates. Compound and no compound controls were prepared in DMEM containing 4% FCS, 1:100 Penicillin/Streptomysin, 1:100 L-glutamine and 5% DMSO in the dilution plate (0.5% DMSO final concentration in the assay). Compound/DMSO mixes were added to the cells and incubated for 4 days at 37° C. After 4 days, plates were rinsed thoroughly with Phosphate-Buffered Saline (PBS) (3 times 150 μl). The cells were lysed with 25 μl of a lysis assay reagent containing the FRET peptide (RET S1, as described for the in vitro enzyme assay). The lysis assay reagent was made from 5× cell Luciferase cell culture lysis reagent(Promega #E153A) diluted to 1× with distilled water, NaCl added to 150 mM final, the FRET peptide diluted to 10 μM final from a 2 mM stock in 100% DMSO. The plate was then placed into the Cytofluor 4000 instrument which had been set to 340 nm excitation/490 emission, automatic mode for 21 cycles and the plate read in a kinetic mode. EC50 determinations were carried out as described for the IC50 determinations.

SMILES	IC50 [1] [nM]	EC50 [2] [nM]
C=CC1C[C@]1(NC(=O)[C@@H]1C[C@@H](Oc2cc(-c3ccccc3)nc3cc(OC)ccc23)CN1C(=O)[C@@H](NC(=O)OC(C)(C)C)C(C)(C)C)C(=O)NS(=O)(=O)c1ccc(Cl)s1 (stereo in doubt) [Compound 2, (1-{4-(7-Methoxy-2-phenylquinolin-4-yloxy)-2-[1-(5-Chlorothiophene-2-sulfonylaminocarbonyl)-2-vinyl-cyclopropylcarbamoyl]-pyrrolidine-1-carbonyl}-2,2-dimethylpropyl)carbamic acid tert-butyl ester]	< 100	100 to 1000
C=CC1C[C@]1(NC(=O)[C@@H]1C[C@@H](Oc2cc(-c3ccccc3)nc3cc(OC)ccc23)CN1C(=O)[C@@H](NC(=O)OC(C)(C)C)C(C)(C)C)C(=O)NS(=O)(=O)C1CCS(=O)(=O)C1 (mixture of isomers) [Compound 13, {1-[2-[1-(1,1-Dioxo-tetrahydro-1H-1[…]6-thiophene-3(R/S)-sulfonylaminocarbonyl)-2-vinylcyclopropylcarbamoyl]-4-(7-methoxy-2-phenyl-quinolin-4-yloxy)pyrrolidine-1-carbonyl]-2,2-dimethylpropyl}carbamic acid tert-butyl ester]	< 100	100 to 1000
C=CC1C[C@]1(NC(=O)[C@@H]1C[C@@H](Oc2cc(-c3ccccc3)nc3cc(OC)ccc23)CN1C(=O)[C@@H](NC(=O)OC(C)(C)C)C(C)(C)C)C(=O)NS(=O)(=O)c1nc(NC(C)=O)sc1C (stereo partly drawn) [Compound 11, {1-[2-{1-[2-Acetylamino-5-methylthiazole-4-sulfonylaminocarbonyl]-2-vinylcyclopropylcarbamoyl}-4-(7-methoxy-2-phenyl-quinolin-4-yloxy)pyrrolidine-1-carbony]-2,2-dimethylpropyl}carbamic acid tert-butyl ester]	< 100	1000 to 10000
C=CC1C[C@]1(NC(=O)[C@@H]1C[C@@H](Oc2cc(-c3ccccc3)nc3cc(OC)ccc23)CN1C(=O)[C@@H](NC(=O)OC(C)(C)C)C(C)(C)C)C(=O)NS(=O)(=O)c1cc(Cl)c(Br)s1 (stereo partly drawn) [Compound 6, {-[2-{1-[5-Bromo-4-chlorothiophene-2-sulfonylamino-carbonyl]-2-vinylcyclopropylcarbamoyl}-4-(7-methoxy-2-phenyl-quinolin-4-yloxy)pyrrolidine-1-carbonyl]-2,2-dimethylpropyl}carbarmic acid tert-butyl ester]	< 100	100 to 1000
C=CC1C[C@]1(NC(=O)[C@@H]1C[C@@H](Oc2cc(-c3ccccc3)nc3cc(OC)ccc23)CN1C(=O)[C@@H](NC(=O)OC(C)(C)C)C(C)(C)C)C(=O)NS(=O)(=O)c1ccc(C)cn1 (stereo in doubt) [Compound 10, (1-{4-(7-Methoxy-2-phenyl-quinolin-4-yloxy)-2-[1-(5-methyl-pyridine-2-sulfonylaminocarbonyl)-2-vinylcyclopropylcarbamoyl]pyrrolidine-1-carbonyl}-2,2-dimethylpropyl)carbamic acid tert-butyl ester]	< 100	100 to 1000
C=CC1C[C@]1(NC(=O)[C@@H]1C[C@@H](Oc2cc(-c3ccccc3)nc3cc(OC)ccc23)CN1C(=O)[C@@H](NC(=O)OC(C)(C)C)C(C)(C)C)C(=O)NS(=O)(=O)c1ccc(Sc2ccc(Cl)cc2)s1 (stereo in doubt) [Compound 5, {1-[2-{1-[5-(4-Chlorophenylsulfanyl)-thiophene-2-sulfonylamino-carbonyl]-2-vinyl-cyclopropylcarbamoyl}-4-(7-methoxy-2-phenyl-quinolin-4-yloxy)-pyrrolidine-1-carbonyl]-2,2-dimethylpropyl}carbamic acid tert-butyl ester]	100 to 1000	1000 to 10000
C=CC1C[C@]1(NC(=O)[C@@H]1C[C@@H](Oc2cc(-c3ccccc3)nc3cc(OC)ccc23)CN1C(=O)[C@@H](NC(=O)OC(C)(C)C)C(C)(C)C)C(=O)NS(=O)(=O)c1ccc(Br)s1 (stereo in doubt) [Compound 4, (1-{4-(7-Methoxy-2-phenylquinolin-4-yloxy)-2-[1-(5-Bromothiophene-2-sulfonylaminocarbonyl)-2-vinyl-cyclopropylcarbamoyl]pyrrolidine-1-carbonyl}-2,2-dimethylpropyl)carbamic acid tert-butyl ester]	< 100	100 to 1000
C=CC1C[C@]1(NC(=O)[C@@H]1C[C@@H](Oc2cc(-c3ccccc3)nc3cc(OC)ccc23)CN1C(=O)[C@@H](NC(=O)OC(C)(C)C)C(C)(C)C)C(=O)NS(=O)(=O)c1nnc(NC(C)=O)s1 (stereo in doubt) [Compound 12, {1-[2-[1-(5-Acetylamino-[1,3,4]thiadiazole-2-sulfonylaminocarbonyl)-2-vinylcyclopropylcarbamoyl]-4-(7-methoxy-2-phenyl-quinolin-4-yloxy)-pyrrolidine-1-carbonyl]-2,2-dimethylpropyl}carbamic acid tert-butyl ester]	100 to 1000	1000 to 10000
C=CC1C[C@]1(NC(=O)[C@@H]1C[C@@H](Oc2cc(-c3ccccc3)nc3cc(OC)ccc23)CN1C(=O)[C@@H](NC(=O)OC(C)(C)C)C(C)(C)C)C(=O)NS(=O)(=O)c1c(C)noc1C (stereo in doubt) [Compound 14, {1-[2-[1-(3,5-Dimethylisoxazole-4-sulfonylaminocarbonyl)-2-vinyl-cyclopropylcarbamoyl]-4-(7-methoxy-2-phenyl-quinolin-4-yloxy)-pyrrolidine-1-carbonyl]-2,2-dimethyl-propyl}-carbamic acid tert-butyl ester]	< 100	100 to 1000
